Experimental data: patent US6790540B2, “Organic electroluminescent element material and organic electroluminescent element” (Nippon Steel Chemical Co., Ltd., priority 2000, dated 2004)

Legend:
[1] = Maximum PL wavelength in chloroform; assay type: physicochemical; conditions: in chloroform (Compound B: 0.1 mM, excitation 350 nm)
Protocol: Next, 5.0 g (0.016 mole) of Compound J, 2.12 g (0.016 mole) of zinc chloride and 4.74 g (0.047 mole) of triethylamine were suspended in 30 ml of ethanol and allowed to react at room temperature. After 3 hours, the separated yellow powder was filtered, washed with ethanol, and purified by column chromatography to give […] (90.0%) of Compound B as yellow crystals. The maximum PL wavelength of Compound B in chloroform was 509 nm (concentration, 0.1 mM; solvent, CHCl3; excitation, 350 nm).

[2] = Solubility (wt %) of compounds in chloroform and toluene; assay type: physicochemical; parameters: key: ◯: ∘, completely soluble; Δ, a slight amount remaining insoluble; X, a considerable amount remaining insoluble; conditions: for Solubility, Chloroform 0.1% soln. / Solubility, Toluene 0.1% soln.: 0.1% soln. (wt %); for Solubility, Chloroform 1% soln. / Solubility, Toluene 1% soln.: 1% soln. (wt %); for Solubility, Chloroform 5% soln. / Solubility, Toluene 5% soln.: 5% soln. (wt %); for Solubility, Chloroform 10% soln. / Solubility, Toluene 10% soln.: 10% soln. (wt %)
Text: The symbols in the table stand for the following: ∘, completely soluble; Δ, a slight amount remaining insoluble; X, a considerable amount remaining insoluble.

With `CCCCCCCCS(=O)(=O)[N-]c1cccc2cccnc12.CCCCCCCCS(=O)(=O)[N-]c1cccc2cccnc12.[Zn+2]` [Compound B, zinc bis-8-(n-octylsulfonamido)quinolinate] the “maximum PL wavelength” value [1] was 509 nm.

For `c1cnc2c([O][Al]([O]c3cccc4cccnc34)[O]c3cccc4cccnc34)cccc2c1` [Alq3, aluminum-8-hydroxyquinoline complex], the “Solubility, Chloroform 0.1% soln.” value [2] was “Δ”, the “Solubility, Chloroform 1% soln.” value [2] was “X” and the “Solubility, Chloroform 5% soln.” value [2] was “X”. The “Solubility, Chloroform 10% soln.” value [2] was “X”, the “Solubility, Toluene 0.1% soln.” value [2] was “X” and the “Solubility, Toluene 1% soln.” value [2] was “X”. The “Solubility, Toluene 5% soln.” value [2] was “X” and the “Solubility, Toluene 10% soln.” value [2] was “X”.

For `CCCCCCCCS(=O)(=O)[N-]c1ccccc1-c1nc2ccccc2o1.CCCCCCCCS(=O)(=O)[N-]c1ccccc1-c1nc2ccccc2o1.[Zn+2]` [Compound 6a, zinc bis-2-(2-(n-octylsulfonamido)phenyl)benzoxazolate], the “Solubility, Chloroform 0.1% soln.” value [2] was “◯”, the “Solubility, Chloroform 1% soln.” value [2] was “◯” and the “Solubility, Chloroform 5% soln.” value [2] was “◯”. For the same molecule, the “Solubility, Chloroform 10% soln.” value [2] was “◯”, the “Solubility, Toluene 0.1% soln.” value [2] was “◯” and the “Solubility, Toluene 1% soln.” value [2] was “◯”. For the same molecule, the “Solubility, Toluene 5% soln.” value [2] was “Δ” and the “Solubility, Toluene 10% soln.” value [2] was “X”.

In the case of `CS(=O)(=O)[N-]c1cccc2cccnc12.CS(=O)(=O)[N-]c1cccc2cccnc12.[Zn+2]` [Compound M, Zinc bis-8-(methylsulfonamido)quinolinate], the “maximum PL wavelength” value [1] is reported as 505 nm, the “Solubility, Chloroform 0.1% soln.” value [2] is reported as “Δ” and the “Solubility, Chloroform 1% soln.” value [2] is reported as “X”. For the same molecule, the “Solubility, Chloroform 5% soln.” value [2] was “X”, the “Solubility, Chloroform 10% soln.” value [2] was “X” and the “Solubility, Toluene 0.1% soln.” value [2] was “X”. For the same molecule, the “Solubility, Toluene 1% soln.” value [2] was “X”, the “Solubility, Toluene 5% soln.” value [2] was “X” and the “Solubility, Toluene 10% soln.” value [2] was “X”.

For `CCCCS(=O)(=O)[N-]c1cccc2cccnc12.CCCCS(=O)(=O)[N-]c1cccc2cccnc12.[Zn+2]` [Compound N, Zinc bis-8-(n-butylsulfonamido)quinolinate], the “maximum PL wavelength” value [1] was 510 nm, the “Solubility, Chloroform 0.1% soln.” value [2] was “◯” and the “Solubility, Chloroform 1% soln.” value [2] was “Δ”. The “Solubility, Chloroform 5% soln.” value [2] was “X”, the “Solubility, Chloroform 10% soln.” value [2] was “X” and the “Solubility, Toluene 0.1% soln.” value [2] was “X”. For the same molecule, the “Solubility, Toluene 1% soln.” value [2] was “X”, the “Solubility, Toluene 5% soln.” value [2] was “X” and the “Solubility, Toluene 10% soln.” value [2] was “X”.
